The values that follow come from patent publication US4737517A, “Coumarin derivatives, pharmaceutical compositions containing the same, and the use thereof in the treatment of cancer” (FIDIA, S.p.A., priority 1983, dated 1988).

Counter-ions that a name gives are not always drawn.

The test system of this assay is platelet hyper-aggregation induced by ADP. In words: Inhibition of ADP-induced platelet hyperaggregation in vitro (Born's method, aggregometer ELVI 840). It is filed as cell-based, New Zealand rabbits. The note with it: Oryctolagus cuniculus, 0.5 h, ADP 20 μg/ml, 100 γ/ml of active compound, rabbit PRP, incubated 30 minutes at 37° C, read-out: Inhibition of platelet hyper-aggregation induced by ADP. As to the method: Two separate centrifugations are effected (at 1000 rpm and at 6000 rpm), thus obtaining PRP ([…]) and PPP ([…]); the first is diluted with the second in order to obtain a platelet concentration of 300,000 per mm^3 (the count is effected in a Buerker apparatus). The compounds with a platelet antiaggregating activity of the present invention are added at the desired concentrations and incubated for 30 minutes at 37° C. with the aggregating agents. […] The various compounds represented by the numbers in the first column are identifiable by the numbers in the second column which refer to the examples described below in this specification.
For the compound `CCN(CC)Cc1cc2c(C)cc(=O)oc2c(Cl)c1O` [Compound 76, 4-methyl-6-diethylaminomethyl-7-hydroxy-8-chlorocumarin hydrochloride], the inhibition (as a rule, the drop in the measured response relative to a control, in per cent) at 100 µg/mL came to 27%.

For the compound `O=c1cc(-c2ccccc2)c2cc(CN3CCOCC3)c(O)c(Cl)c2o1` [Compound 102, 4-phenyl-6-(4-morpholinylmethyl)-7-hydroxy-8-chlorocumarin hydrochloride], the inhibition at 100 µg/mL came to 12%.

`CCN(CC)CCc1c(C)c2cc(CN3CCOCC3)c(OC)c(Cl)c2oc1=O` [Compound 105, 3-(2-diethylaminoethyl)-4-methyl-6-(4-morpholinylmethyl)-7-methoxy-8-chlorocumarin dihydrochloride]: the inhibition at 100 µg/mL stood at 28%.

As for `C=CCc1c(O)c(CN2CCCC2)cc2c(C)cc(=O)oc12` [Compound 117, 4-methyl-6-(1-pyrrolidinylmethyl)-7-hydroxy-8-allylcumarin hydrochloride], the inhibition at 100 µg/mL was found to be 44%.

Consider `C=CCc1c(O)c(CN(CC)CC)cc2c(C)cc(=O)oc12` [Compound 121, 4-methyl-6-diethylaminomethyl-7-hydroxy-8-allylcumarin hydrochloride], for which the inhibition at 100 µg/mL was 51%.

As for `C=CCc1c(O)c(CN2CCCCC2)cc2c(C)cc(=O)oc12` [Compound 124, 4-methyl-6-(1-piperidinylmethyl)-7-hydroxy-8-allylcumarin hydrochloride], the inhibition at 100 µg/mL turned out to be 38%.

Turning to `Cc1cc(=O)oc2c(C)c(O)c(CN(C)C)cc12` [Compound 130, 4,8-dimethyl-6-dimethylaminomethyl-7-hydroxycumarin hydrochloride], the inhibition at 100 µg/mL was 29%.

On to `Cc1cc(=O)oc2c(Cl)c(O)c(CN(C)C)cc12` [Compound 132, 4-methyl-6-dimethylaminomethyl-7-hydroxy-8-chlorocumarin hydrochloride], for which the inhibition at 100 µg/mL is 13%.

Take `Cc1cc(=O)oc2c(C)c(O)c(CN3CCOCC3)cc12` [Compound 188, 4,8-dimethyl-6-(4-morpholinylmethyl)-7-hydroxycoumarin hydrochloride]: the inhibition at 100 µg/mL came out at 19%.

For the compound `C=CCc1c(O)c(CN2CCC(O)CC2)cc2c(C)cc(=O)oc12` [Compound 200, 4-methyl-6-[(4-hydroxy-1-piperidinyl)methyl]-7-hydroxy-8-allylcumarin hydrochloride], the inhibition at 100 µg/mL is 21%.

Take `C=CCc1c(O)c(CN2CCCC(O)C2)cc2c(C)cc(=O)oc12` (centres unmarked) [Compound 201, 4-methyl-6-[(3-hydroxy-1-piperidinyl)methyl]-7-hydroxy-8-allylcumarin hydrochloride]: the inhibition at 100 µg/mL came out at 32%.
